Calls of active or inactive are those of the source. The rule behind the calls is not given here.
Columns and labels:
[1] = molecular target: T1, Lysosomal alpha-mannosidase (Homo sapiens) (UniProt O00754); experiment: Chaperone activity at Lysosomal alpha-mannosidase in wild-type human fibroblasts assessed as increase in Lysosomal alpha-mannosidase activity at 0.2 to 20 uM using 4-methylumbelliferone alpha-D-mannopyranoside as a reporter substrate incubated for 4 days by fluorescence method relative to control
T1 sequence (whole entry): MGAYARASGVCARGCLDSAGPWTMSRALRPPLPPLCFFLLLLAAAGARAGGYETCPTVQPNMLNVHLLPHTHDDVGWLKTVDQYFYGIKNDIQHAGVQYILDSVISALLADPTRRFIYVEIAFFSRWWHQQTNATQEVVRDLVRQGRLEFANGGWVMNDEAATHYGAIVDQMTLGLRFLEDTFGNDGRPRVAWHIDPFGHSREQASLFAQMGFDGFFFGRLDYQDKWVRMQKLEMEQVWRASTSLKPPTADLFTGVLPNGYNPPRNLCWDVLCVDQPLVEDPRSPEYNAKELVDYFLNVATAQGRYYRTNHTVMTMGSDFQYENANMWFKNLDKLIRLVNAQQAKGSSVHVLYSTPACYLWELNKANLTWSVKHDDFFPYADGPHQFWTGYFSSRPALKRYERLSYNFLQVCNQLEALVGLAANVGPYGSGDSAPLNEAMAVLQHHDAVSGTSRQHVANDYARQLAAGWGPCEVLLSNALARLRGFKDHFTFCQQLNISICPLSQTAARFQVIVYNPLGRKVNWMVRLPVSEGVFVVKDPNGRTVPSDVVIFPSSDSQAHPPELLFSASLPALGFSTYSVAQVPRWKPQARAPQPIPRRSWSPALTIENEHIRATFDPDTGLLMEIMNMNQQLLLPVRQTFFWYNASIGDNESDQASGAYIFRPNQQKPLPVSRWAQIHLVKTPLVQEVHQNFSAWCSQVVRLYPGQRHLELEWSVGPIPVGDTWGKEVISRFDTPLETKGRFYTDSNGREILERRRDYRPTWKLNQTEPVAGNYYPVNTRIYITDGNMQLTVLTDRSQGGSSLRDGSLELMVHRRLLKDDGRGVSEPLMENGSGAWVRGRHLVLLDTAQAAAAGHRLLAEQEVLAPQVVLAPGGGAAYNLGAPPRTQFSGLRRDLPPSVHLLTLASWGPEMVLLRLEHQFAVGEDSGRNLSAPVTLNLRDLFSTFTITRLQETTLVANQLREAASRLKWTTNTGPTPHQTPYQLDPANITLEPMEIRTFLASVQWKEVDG

[2] = molecular target: T1, Lysosomal alpha-mannosidase (Homo sapiens); experiment: Chaperone activity at Lysosomal alpha-mannosidase in wild-type human fibroblasts assessed as increase in Lysosomal alpha-mannosidase activity using 4-methylumbelliferone alpha-D-mannopyranoside as a reporter substrate incubated for 4 days by fluorescence method
[3] = molecular target: T2, Alpha-mannosidase (Canavalia ensiformis, UniProt C0HJB3); experiment: Inhibition of jack bean Lysosomal alpha-mannosidase assessed as residual hydrolytic activity after 10 to 30 mins by spectrophotometric analysis
T2 sequence (C0HJB3 whole entry): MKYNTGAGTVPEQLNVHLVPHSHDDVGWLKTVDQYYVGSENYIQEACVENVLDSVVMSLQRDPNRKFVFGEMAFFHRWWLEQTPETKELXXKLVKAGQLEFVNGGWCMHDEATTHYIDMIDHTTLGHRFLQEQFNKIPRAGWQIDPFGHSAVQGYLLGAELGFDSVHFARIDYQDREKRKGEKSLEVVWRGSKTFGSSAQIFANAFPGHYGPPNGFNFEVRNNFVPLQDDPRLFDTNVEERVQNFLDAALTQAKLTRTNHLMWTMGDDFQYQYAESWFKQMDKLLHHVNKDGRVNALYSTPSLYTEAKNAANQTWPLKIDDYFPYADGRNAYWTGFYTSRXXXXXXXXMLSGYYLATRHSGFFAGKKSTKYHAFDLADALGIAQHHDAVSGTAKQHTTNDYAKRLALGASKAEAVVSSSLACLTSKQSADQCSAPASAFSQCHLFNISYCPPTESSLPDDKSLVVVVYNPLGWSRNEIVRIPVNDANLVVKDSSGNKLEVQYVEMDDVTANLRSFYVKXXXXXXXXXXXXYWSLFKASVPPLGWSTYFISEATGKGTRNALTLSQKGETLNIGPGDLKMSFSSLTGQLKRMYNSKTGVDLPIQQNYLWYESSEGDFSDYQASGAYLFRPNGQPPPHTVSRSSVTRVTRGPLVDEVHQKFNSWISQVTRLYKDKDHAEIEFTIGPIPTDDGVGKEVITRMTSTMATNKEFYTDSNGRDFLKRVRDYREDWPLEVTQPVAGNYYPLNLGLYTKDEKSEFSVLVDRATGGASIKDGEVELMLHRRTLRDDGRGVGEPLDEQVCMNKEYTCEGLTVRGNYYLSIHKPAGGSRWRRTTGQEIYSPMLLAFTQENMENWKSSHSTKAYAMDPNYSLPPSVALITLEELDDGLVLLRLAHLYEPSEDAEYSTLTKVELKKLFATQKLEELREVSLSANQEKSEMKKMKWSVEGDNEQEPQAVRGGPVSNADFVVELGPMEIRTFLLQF

[4] = system: Saccharomyces cerevisiae; experiment: Inhibition of yeast isomaltase assessed as residual hydrolytic activity up to 2 mM after 10 to 30 mins by spectrophotometric analysis
[5] = system: Aspergillus niger; experiment: Inhibition of Aspergillus niger amyloglucosidase assessed as residual hydrolytic activity up to 2 mM after 10 to 30 mins by spectrophotometric analysis
[6] = molecular target: Alpha-galactosidase (Coffea arabica) (UniProt Q42656); experiment: Inhibition of green coffee alpha-galactosidase assessed as residual hydrolytic activity up to 2 mM after 10 to 30 mins by spectrophotometric analysis
Chain of Alpha-galactosidase (Coffea arabica) (Q42656 16-378 limits assumed): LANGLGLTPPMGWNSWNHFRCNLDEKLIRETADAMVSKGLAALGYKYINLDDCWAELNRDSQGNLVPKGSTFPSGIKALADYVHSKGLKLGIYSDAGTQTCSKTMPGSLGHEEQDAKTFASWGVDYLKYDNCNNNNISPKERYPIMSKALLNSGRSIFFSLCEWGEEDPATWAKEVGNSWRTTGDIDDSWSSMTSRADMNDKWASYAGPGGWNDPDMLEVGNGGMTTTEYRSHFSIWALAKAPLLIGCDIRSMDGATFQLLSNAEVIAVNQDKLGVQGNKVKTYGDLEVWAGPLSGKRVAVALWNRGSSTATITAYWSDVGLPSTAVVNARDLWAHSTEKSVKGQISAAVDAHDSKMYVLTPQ

[7] = molecular target: Beta-galactosidase (Escherichia coli) (UniProt Q8VNN2); experiment: Inhibition of Escherichia coli beta-galactosidase assessed as residual hydrolytic activity up to 2 mM after 10 to 30 mins by spectrophotometric analysis
Chain of Beta-galactosidase (Escherichia coli) (Q8VNN2 whole entry, looked up): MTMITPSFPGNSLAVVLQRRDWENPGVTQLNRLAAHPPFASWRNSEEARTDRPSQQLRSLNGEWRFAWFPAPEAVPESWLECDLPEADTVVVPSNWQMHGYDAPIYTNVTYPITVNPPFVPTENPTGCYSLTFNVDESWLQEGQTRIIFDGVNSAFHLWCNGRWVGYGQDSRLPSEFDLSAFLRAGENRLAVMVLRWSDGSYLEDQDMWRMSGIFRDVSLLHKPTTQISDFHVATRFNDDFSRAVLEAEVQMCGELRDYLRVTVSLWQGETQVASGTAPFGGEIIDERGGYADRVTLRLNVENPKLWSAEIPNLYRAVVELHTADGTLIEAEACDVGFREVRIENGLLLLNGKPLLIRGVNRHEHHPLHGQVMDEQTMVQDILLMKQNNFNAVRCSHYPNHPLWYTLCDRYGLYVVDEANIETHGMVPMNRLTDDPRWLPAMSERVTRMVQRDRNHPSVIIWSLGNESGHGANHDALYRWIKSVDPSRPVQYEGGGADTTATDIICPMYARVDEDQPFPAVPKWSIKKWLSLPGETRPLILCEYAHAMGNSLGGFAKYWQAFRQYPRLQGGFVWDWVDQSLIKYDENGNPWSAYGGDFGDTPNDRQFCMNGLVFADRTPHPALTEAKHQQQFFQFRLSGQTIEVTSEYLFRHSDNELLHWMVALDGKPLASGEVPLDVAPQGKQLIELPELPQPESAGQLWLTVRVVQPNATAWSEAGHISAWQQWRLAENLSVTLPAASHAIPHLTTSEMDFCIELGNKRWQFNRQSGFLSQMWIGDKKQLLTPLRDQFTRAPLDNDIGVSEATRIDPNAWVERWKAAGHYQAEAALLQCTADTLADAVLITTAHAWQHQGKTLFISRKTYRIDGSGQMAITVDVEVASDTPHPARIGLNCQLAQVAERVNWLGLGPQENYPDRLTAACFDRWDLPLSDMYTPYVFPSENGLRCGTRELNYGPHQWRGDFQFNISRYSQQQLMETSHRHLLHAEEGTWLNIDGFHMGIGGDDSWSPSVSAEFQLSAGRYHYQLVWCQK

[8] = system: Helix pomatia; experiment: Inhibition of Helix pomatia beta-mannosidase assessed as residual hydrolytic activity up to 2 mM after 10 to 30 mins by spectrophotometric analysis

| Structure (SMILES) | fold change (FC) [1] | Activity [2] | Ki [3] [µM] | inhibition [4] | inhibition [5] | inhibition [6] | inhibition [7] | inhibition [8] |
| --- | --- | --- | --- | --- | --- | --- | --- | --- |
| CO[C@@H]1[C@@H](OC)[C@H]2O[C@H]3[C@H](OC)[C@@H](OC)[C@@H](O[C@H]4[C@H](OC)[C@@H](OC)[C@@H](O[C@H]5[C@H](OC)[C@@H](OC)[C@@H](O[C@H]6[C@H](OC)[C@@H](OC)[C@@H](O[C@H]7[C@H](OC)[C@@H](OC)[C@@H](O[C@H]8[C@H](OC)[C@@H](OC)[C@@H](O[C@@H]1[C@@H](COCc1cn(CCCCCCN[C@@H]9[C@@H](O)[C@@H](O)[C@H](O)[C@H]%10COC(=O)N%109)nn1)O2)O[C@@H]8COCc1cn(CCCCCCN[C@@H]2[C@@H](O)[C@@H](O)[C@H](O)[C@H]8COC(=O)N82)nn1)O[C@@H]7COCc1cn(CCCCCCN[C@@H]2[C@@H](O)[C@@H](O)[C@H](O)[C@H]7COC(=O)N72)nn1)O[C@@H]6COCc1cn(CCCCCCN[C@@H]2[C@@H](O)[C@@H](O)[C@H](O)[C@H]6COC(=O)N62)nn1)O[C@@H]5COCc1cn(CCCCCCN[C@@H]2[C@@H](O)[C@@H](O)[C@H](O)[C@H]5COC(=O)N52)nn1)O[C@@H]4COCc1cn(CCCCCCN[C@@H]2[C@@H](O)[C@@H](O)[C@H](O)[C@H]4COC(=O)N42)nn1)O[C@@H]3COCc1cn(CCCCCCN[C@@H]2[C@@H](O)[C@@H](O)[C@H](O)[C@H]3COC(=O)N32)nn1 |  |  | 0.5 to 50 | inactive | inactive | inactive | inactive | inactive |
| CCCCCCCCN[C@@H]1[C@@H](O)[C@@H](O)[C@H](O)[C@H]2COC(=O)N21 | 1.3 to 2.4 | Dose-dependent effect | 3.2 |  |  |  |  |  |
| COC[C@H]1O[C@@H]2O[C@H]3[C@H](OC)[C@@H](OC)[C@@H](O[C@H]4[C@H](OC)[C@@H](OC)[C@@H](O[C@H]5[C@H](OC)[C@@H](OC)[C@@H](O[C@H]6[C@H](OC)[C@@H](OC)[C@@H](O[C@H]7[C@H](OC)[C@@H](OC)[C@@H](O[C@H]8[C@H](OC)[C@@H](OC)[C@@H](O[C@H]1[C@H](OC)[C@H]2OC)O[C@@H]8COC)O[C@@H]7COC)O[C@@H]6COC)O[C@@H]5COCc1cn(CCCCCCN[C@@H]2[C@@H](O)[C@@H](O)[C@H](O)[C@H]5COC(=O)N52)nn1)O[C@@H]4COC)O[C@@H]3COC | 1.3 to 2.4 | Dose-dependent effect | 0.5 to 50 | inactive | inactive | inactive | inactive | inactive |
| CCCc1cn(CCCCCCN[C@@H]2[C@@H](O)[C@@H](O)[C@H](O)[C@H]3COC(=O)N32)nn1 | 1.3 to 2.4 | Dose-dependent effect | 0.5 to 50 | inactive | inactive | inactive | inactive | inactive |

More lines, now with the values ahead:

| fold change (FC) [1] | Activity [2] | Ki [3] [µM] | inhibition [4] | inhibition [5] | inhibition [6] | inhibition [7] | inhibition [8] | Structure (SMILES) |
| --- | --- | --- | --- | --- | --- | --- | --- | --- |
| 1.3 to 2.4 | Dose-dependent effect | 0.5 to 50 | inactive | inactive | inactive | inactive | inactive | [N-]=[N+]=NCCCCCCCCCN[C@@H]1[C@@H](O)[C@@H](O)[C@H](O)[C@H]2COC(=O)N21 |
| 1.3 to 2.4 | Dose-dependent effect | 0.5 to 50 | inactive | inactive | inactive | inactive | inactive | [N-]=[N+]=NCCCCCCN[C@@H]1[C@@H](O)[C@@H](O)[C@H](O)[C@H]2COC(=O)N21 |
| 1.3 to 2.4 | Dose-dependent effect | 0.5 to 50 | inactive | inactive | inactive | inactive | inactive | CC(C)(C)OC(=O)NCCCCCCCCCN[C@@H]1[C@@H](O)[C@@H](O)[C@H](O)[C@H]2COC(=O)N21 |
